Assay results reported in PMC7669905, “A cellulose synthase-derived enzyme catalyses 3-O-glucuronosylation in saponin biosynthesis” (Nature Communications, 2020).

Tests used:
Assay type in all cases: cell-based
LjCSyGT = molecular target: T1, LjCSyGT (Lotus japonicus, UniProt A0A7I6P8A1); experiment: in vivo yeast assay, LC-MS of monoglucuronide; details: yeast strain with co-expressed UGD; endogenous UDP-glucuronic acid; 30 °C, 5 days
T1 construct: cDNA clone, ER membrane protein, expressed in S. cerevisiae with A. thaliana UGD
T1 sequence (A0A7I6P8A1 1-694): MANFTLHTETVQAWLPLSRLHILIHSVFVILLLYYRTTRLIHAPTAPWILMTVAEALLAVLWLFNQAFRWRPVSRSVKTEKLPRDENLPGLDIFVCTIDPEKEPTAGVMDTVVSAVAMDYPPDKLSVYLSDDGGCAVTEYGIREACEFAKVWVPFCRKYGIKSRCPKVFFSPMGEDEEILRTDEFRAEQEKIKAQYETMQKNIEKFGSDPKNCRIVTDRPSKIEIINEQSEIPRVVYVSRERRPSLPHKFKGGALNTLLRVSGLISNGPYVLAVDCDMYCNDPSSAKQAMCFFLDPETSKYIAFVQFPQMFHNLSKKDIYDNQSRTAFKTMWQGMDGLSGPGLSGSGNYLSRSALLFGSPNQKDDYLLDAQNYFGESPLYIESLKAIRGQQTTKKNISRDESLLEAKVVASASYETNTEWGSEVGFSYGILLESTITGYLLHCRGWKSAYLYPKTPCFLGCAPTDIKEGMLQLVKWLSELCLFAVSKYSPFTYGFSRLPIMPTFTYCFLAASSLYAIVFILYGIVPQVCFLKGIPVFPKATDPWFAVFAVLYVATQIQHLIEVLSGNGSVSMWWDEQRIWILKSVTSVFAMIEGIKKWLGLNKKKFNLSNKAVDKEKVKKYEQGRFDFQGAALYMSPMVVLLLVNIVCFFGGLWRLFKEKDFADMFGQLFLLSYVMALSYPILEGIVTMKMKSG

GmCSyGT1 = molecular target: T2, GmCSyGT1 (Glycine max, UniProt A0A7I6PD81); experiment: in vivo yeast assay, LC-MS of monoglucuronide; details: yeast strain with co-expressed UGD; endogenous UDP-glucuronic acid; 30 °C, 5 days
T2 construct: full-length cDNA, membrane protein, expressed in S. cerevisiae with A. thaliana UGD
T2 sequence (A0A7I6PD81 1-699): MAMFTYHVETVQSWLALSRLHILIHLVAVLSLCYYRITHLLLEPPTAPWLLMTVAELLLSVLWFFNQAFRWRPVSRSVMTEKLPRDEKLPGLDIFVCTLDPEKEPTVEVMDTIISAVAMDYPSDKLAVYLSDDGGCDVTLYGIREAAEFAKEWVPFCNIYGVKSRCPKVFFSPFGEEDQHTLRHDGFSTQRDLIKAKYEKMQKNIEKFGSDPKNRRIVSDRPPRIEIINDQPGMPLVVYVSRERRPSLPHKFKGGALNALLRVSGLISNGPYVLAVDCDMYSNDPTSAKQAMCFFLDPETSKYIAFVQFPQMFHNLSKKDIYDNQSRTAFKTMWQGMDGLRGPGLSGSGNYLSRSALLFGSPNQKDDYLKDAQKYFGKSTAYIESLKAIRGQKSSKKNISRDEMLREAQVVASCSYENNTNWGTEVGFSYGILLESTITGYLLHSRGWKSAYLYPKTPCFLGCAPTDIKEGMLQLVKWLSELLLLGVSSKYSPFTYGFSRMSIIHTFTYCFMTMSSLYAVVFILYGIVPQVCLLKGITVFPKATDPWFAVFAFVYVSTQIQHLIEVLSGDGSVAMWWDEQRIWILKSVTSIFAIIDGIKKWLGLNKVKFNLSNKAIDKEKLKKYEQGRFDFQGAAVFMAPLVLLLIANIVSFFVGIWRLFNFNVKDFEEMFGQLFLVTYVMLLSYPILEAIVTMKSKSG

GmCSyGT3 = molecular target: T3, GmCSyGT3 (Glycine max, UniProt A0A7I6P8J7); experiment: yeast feeding assay, LC-MS of monoglucuronide; details: 10 µM substrate fed to yeast with co-expressed UGD
T3 construct: full-length cDNA, membrane protein, expressed in S. cerevisiae with A. thaliana UGD
T3 sequence (A0A7I6P8J7 1-696): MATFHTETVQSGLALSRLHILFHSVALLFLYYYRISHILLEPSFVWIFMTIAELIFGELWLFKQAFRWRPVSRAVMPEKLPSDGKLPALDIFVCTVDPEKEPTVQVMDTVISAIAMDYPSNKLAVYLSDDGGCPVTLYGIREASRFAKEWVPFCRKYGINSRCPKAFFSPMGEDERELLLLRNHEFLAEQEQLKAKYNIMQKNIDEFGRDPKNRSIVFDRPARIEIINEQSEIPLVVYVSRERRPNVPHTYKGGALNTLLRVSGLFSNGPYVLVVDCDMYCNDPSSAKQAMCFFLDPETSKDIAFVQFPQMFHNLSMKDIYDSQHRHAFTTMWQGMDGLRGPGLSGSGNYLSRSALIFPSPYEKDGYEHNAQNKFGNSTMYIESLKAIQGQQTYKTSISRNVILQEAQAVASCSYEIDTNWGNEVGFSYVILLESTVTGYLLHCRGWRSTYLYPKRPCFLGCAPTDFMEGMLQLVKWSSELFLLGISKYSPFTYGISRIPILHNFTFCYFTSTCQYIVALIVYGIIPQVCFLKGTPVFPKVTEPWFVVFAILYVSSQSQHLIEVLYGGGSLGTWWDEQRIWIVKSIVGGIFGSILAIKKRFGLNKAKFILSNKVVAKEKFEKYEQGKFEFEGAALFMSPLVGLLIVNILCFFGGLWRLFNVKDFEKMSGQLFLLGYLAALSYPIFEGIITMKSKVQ

GuCSyGT [1] = molecular target: T4, GuCSyGT (Glycyrrhiza uralensis, UniProt A0A7I6P8N6); experiment: in vivo yeast assay, LC-MS of monoglucuronide; details: yeast strain with co-expressed UGD; endogenous UDP-glucuronic acid; 30 °C, 5 days
T4 construct: full-length cDNA, ER membrane protein, expressed in S. cerevisiae with A. thaliana UGD
T4 sequence (A0A7I6P8N6 1-695): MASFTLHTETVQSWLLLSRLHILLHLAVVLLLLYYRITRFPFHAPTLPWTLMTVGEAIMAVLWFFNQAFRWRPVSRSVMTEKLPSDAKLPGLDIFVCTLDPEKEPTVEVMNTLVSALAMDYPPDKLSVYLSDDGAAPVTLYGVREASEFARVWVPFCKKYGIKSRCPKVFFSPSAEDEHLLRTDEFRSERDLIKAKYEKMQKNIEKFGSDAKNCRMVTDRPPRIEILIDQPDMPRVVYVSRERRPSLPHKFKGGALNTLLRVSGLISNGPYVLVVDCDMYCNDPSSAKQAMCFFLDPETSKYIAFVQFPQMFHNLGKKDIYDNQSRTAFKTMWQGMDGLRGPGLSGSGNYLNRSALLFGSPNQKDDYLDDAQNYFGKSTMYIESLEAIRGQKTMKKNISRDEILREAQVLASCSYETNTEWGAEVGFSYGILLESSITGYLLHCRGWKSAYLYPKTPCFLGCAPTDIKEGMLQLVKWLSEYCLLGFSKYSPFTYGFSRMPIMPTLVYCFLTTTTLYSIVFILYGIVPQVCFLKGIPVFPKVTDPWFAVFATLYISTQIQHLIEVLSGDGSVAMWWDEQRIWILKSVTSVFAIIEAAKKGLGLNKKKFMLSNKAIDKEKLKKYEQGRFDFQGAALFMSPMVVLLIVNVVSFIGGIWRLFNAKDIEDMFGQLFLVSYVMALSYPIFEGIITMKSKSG

GuUGT73F13 = molecular target: T5, GuUGT73F13 (Glycyrrhiza uralensis, UniProt A0A6S4QPQ3); experiment: in vivo yeast assay, LC-MS of 3-O-monoglucoside; details: glycyrrhetinic acid-producing yeast strain with UGD; donor endogenous UDP-glucose
T5 construct: gene UGT73F13; cDNA clone expressed in S. cerevisiae with A. thaliana UGD
T5 sequence (A0A6S4QPQ3 1-477): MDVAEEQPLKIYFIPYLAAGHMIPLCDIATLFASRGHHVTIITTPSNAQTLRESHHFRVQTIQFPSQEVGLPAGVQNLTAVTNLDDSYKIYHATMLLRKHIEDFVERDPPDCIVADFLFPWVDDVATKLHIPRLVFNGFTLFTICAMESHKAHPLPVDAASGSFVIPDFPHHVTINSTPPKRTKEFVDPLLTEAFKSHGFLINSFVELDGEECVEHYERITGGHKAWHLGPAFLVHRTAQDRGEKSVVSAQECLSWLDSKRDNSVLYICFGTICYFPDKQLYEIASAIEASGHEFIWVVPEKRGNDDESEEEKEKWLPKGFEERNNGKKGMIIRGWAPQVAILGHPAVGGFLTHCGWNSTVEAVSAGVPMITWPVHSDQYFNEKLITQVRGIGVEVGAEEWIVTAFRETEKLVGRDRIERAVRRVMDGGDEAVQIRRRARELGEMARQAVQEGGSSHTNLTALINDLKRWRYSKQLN

UGT73P12 = molecular target: T6, UGT73P12 (Glycyrrhiza uralensis, UniProt A0A5A4WN00); experiment: de novo pathway in yeast, LC-MS of glycyrrhizin; details: donor endogenous UDP-glucuronic acid (UGD); acceptor made in situ by CSyGT
T6 construct: expressed in S. cerevisiae in the reconstructed glycyrrhizin pathway (strain GL)
T6 sequence (A0A5A4WN00 1-506): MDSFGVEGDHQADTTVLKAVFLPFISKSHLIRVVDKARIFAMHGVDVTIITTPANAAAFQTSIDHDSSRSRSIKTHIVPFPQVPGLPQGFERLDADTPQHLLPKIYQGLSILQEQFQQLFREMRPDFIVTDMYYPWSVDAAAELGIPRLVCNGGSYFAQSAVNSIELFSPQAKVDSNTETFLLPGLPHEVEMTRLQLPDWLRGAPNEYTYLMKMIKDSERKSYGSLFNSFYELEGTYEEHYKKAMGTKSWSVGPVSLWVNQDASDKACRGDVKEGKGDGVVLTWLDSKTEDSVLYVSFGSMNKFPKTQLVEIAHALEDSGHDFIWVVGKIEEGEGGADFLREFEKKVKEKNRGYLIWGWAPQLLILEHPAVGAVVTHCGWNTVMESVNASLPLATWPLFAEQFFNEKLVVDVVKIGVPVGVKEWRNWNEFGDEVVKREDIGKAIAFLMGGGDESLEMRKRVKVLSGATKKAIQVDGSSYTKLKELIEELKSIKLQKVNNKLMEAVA

GuCSyGT [2] = molecular target: T4, GuCSyGT; experiment: in vivo yeast assay, LC-MS of products with and without UGD; details: sugar donor; acceptor glycyrrhetinic acid

Structure (SMILES) | in vivo yeast assay, LC-MS of monoglucuronide (LjCSyGT) | in vivo yeast assay, LC-MS of monoglucuronide (GmCSyGT1) | yeast feeding assay, LC-MS of monoglucuronide (GmCSyGT3) | also measured
CC1(C)C[C@@H](O)[C@]2(C)CC[C@]3(C)C(=CC[C@@H]4[C@@]5(C)CC[C@H](O)[C@](C)(CO)[C@@H]5CC[C@]43C)[C@@H]2C1 [soyasapogenol B] | all three had similar levels of catalytic activity for soyasapogenol B | all three had similar levels of catalytic activity for soyasapogenol B | – | –
C[C@H]1[C@H](C)CC[C@]2(C(=O)O)CC[C@]3(C)C(=CC[C@@H]4[C@@]5(C)CC[C@H](O)C(C)(C)[C@@H]5CC[C@]43C)[C@H]12 [ursolic acid] | – | – | GmCSyGT3 showed catalytic activity against the triterpenoid aglycones, ursolic acid and betulinic acid | –
CC1(C)[C@@H](O)CC[C@]2(C)[C@H]3C(=O)C=C4[C@@H]5C[C@@](C)(C(=O)O)CC[C@]5(C)CC[C@@]4(C)[C@]3(C)CC[C@@H]12 [GA, glycyrrhetinic acid] | The low catalytic activity of LjCSyGT for glycyrrhetinic and oleanolic acids | All of the CSyGT-expressing strains produced the corresponding monoglucuronides | – | in vivo yeast assay, LC-MS of monoglucuronide (GuCSyGT [1]): All of the CSyGT-expressing strains produced the corresponding monoglucuronides; in vivo yeast assay, LC-MS of 3-O-monoglucoside (GuUGT73F13): GuUGT73F13, which catalyses 3-O-glucosylation of glycyrrhetinic acid
C=C(C)[C@@H]1CC[C@]2(C(=O)O)CC[C@]3(C)[C@H](CC[C@@H]4[C@@]5(C)CC[C@H](O)C(C)(C)[C@@H]5CC[C@]43C)[C@@H]12 [betulinic acid] | – | – | GmCSyGT3 showed catalytic activity against the triterpenoid aglycones, ursolic acid and betulinic acid | –
CC1(C)[C@@H](O[C@@H]2O[C@H](C(=O)O)[C@@H](O)[C@H](O)[C@H]2O)CC[C@]2(C)[C@H]3C(=O)C=C4[C@@H]5C[C@@](C)(C(=O)O)CC[C@]5(C)CC[C@@]4(C)[C@]3(C)CC[C@@H]12 [GA–GlcA, glycyrrhetinic acid-3-O-monoglucuronide] | – | – | – | de novo pathway in yeast, LC-MS of glycyrrhizin (UGT73P12): Since the product is quickly converted into glycyrrhizin in GL strains
O=C(O)[C@H]1O[C@H](OP(=O)(O)OP(=O)(O)OC[C@H]2O[C@@H](n3ccc(=O)[nH]c3=O)[C@H](O)[C@@H]2O)[C@H](O)[C@@H](O)[C@@H]1O [UDP-glucuronic acid] | – | – | – | in vivo yeast assay, LC-MS of products with and without UGD (GuCSyGT [2]): GuCSyGT preferentially selects UDP-glucuronic acid as the sugar donor
